One compound from patent publication US20070009891A1, “Method for the isolation of expressed sequence tags in plants” (Metapontum Agrobios S.R.L., priority 2003, published 2007) can be followed below.

Assay [1] concerns undifferentiated gene expression in hard corn seedlings. The experiment in a line: RT-PCR amplification and sequencing of genes expressed in different growth phases, from seedlings germinated with 5-AzaCytidine. Also on record: species or system Triticum durum. To be noted: MSO germination medium; 0.1-1 mM tested. From the text:
Furthermore, to confirm the efficiency of the method used, several genes were identified which are expressed in different growth phases of soft corn, of which a large number of sequences are available as this species of corn is more widely studied that hard corn. On the basis of the sequences deposited in data banks (National Center for Biotechnology Information, NCBI; European Bioinformatics Institute, EBI) pairs of oligonucleotides identified in the zones flanking the region encoding the nucleotidic sequence, were prepared, and subsequently used as primers for the amplification of the whole gene being tested. […]
The cDNA inserts were first amplified with the appropriate primers, cloned in the vector p-GEMT and introduced into the competent cells Escherichia coli (E. coli) DH5α. The recombinant clones, containing the expected fragments, were characterized by restriction analysis and their identity was confirmed by effecting sequence reactions carried out using the ABI Prism Big TaqDyeDeoxyTerminator Cycle Sequencing Kit (Applied Biosystems, Nr. 4303149) and analyzed with the automatic ABI 377 DNA Sequencer (Perkin Elmer ABI Prism). […]

The next assay relates to genomic DNA of hard corn. The experiment in a line: Digestion of genomic DNA with restriction enzymes sensitive to methylation (CfoI, Hpa2, Msp1). To be noted: seedlings about 21 days after germination; 5-azaC 0.1, 0.3, 0.5, 1 mM vs control. More on the design: species or system Triticum durum. As for the experimental part: Analyses for correlating the demethylation degree of the DNA with an increase in the undifferentiated gene expression were carried out by digestion of the genomic DNA with restriction enzymes sensitive to methylation, i.e. enzymes which preferentially act on hypomethylated DNA.
Analyses for correlating the demethylation degree of the DNA with an increase in the undifferentiated gene expression were carried out by digesting the genomic DNA with the following restriction enzymes: Cfol, Hpa2, Msp1 (Roche), sensitive to methylation.
For each reaction, about 5 μg of total DNA were digested with 20 units of enzyme in a final volume of 150 μl, for a night at 37° C. Each digestion product was precipitated and resuspended in 30μl of H2O. The digestion mixtures were separated on agarose gel at 0.8% and subjected to horizontal electrophoresis, for a night at […] (Sambrook, J. et al., 1989, Cold Spring Harbor Laboratory Press).

A further assay relates to hard corn seedlings. The experiment in a line: Germination of hard corn seeds on MSO medium with 5-azaC: seedling phenotype. Type of assay: in vivo, Triticum durum. To be noted: increasing concentration of 5-azaC (0.1-1 mM), aerial part and roots, 24° C. in the dark. As for the experimental part: According to this method, the germination of the seeds is generally effected at a temperature ranging from 20 to 30° C., preferably from 22 to 26° C., in the dark and in the presence of concentrations of 5-azaC ranging from 0.1 mM to 2 mM, preferably from 0.3 mM to 0.5 mM.
Seeds of hard corn (Triticum durum) were sterilized in a solution of ethyl alcohol at 70% for 10 minutes under stirring. After eliminating the ethanol, the seeds were treated with a solution containing sodium hypochlorite (ACE) at 50% and Sodium Dodecyl Sulfate (SDS) at 0.5%, incubated at room temperature for 20 minutes under light stirring.
The seeds were subsequently washed with sterile H2O until the complete removal of the foam (about 7-8 times) and about 15-20 seeds were then placed in a Magenta Box each containing: 30 ml of MSO substrate (Sucrose 15 g/l, Muraschige-Sckug MS salts 2.2 g/l, Thiamin 0.2 mg/l, Myoinositol 50 mg/l, pH 5.6, agar 7 g/l), different concentrations of 5-azac (0.1 mM, 0.3 mM, 0.5 mM and 1 mM) and germinated in a chamber thermostat-regulated at 24° C. in the dark.
Seeds of hard corn left to germinate in MSO medium without 5-azac, were used as a control.

Turning to `Nc1ncn([C@@H]2O[C@H](CO)[C@@H](O)[C@H]2O)c(=O)n1` [5-azaC, 5-AzaCytidine], in assay [1], the “concentration in the germination medium giving the best results (totipotent gene expression)” value is 0.3 to 0.5 mM. Besides, the “digestion of the genomic DNA by methylation-sensitive restriction enzymes (demethylation degree)” value with genomic DNA of hard corn is “different digestion of the genomic DNA”. Besides, the “phenotype of the seedlings compared with control cultivated without 5-azaC” value in the assay with hard corn seedlings is “slowing down in the development of the seedlings”.
